Like-named read-outs stand apart in the source and are kept apart here.
Assay: Clinical pharmacokinetics: plasma CYH33 and I27 by LC/MS/MS
Format: in vivo, human
Conditions: for AUC(0-t) / Cmax / Tmax / concentration at 0.5 h / concentration at 24 h / concentration at 72 h / concentration at 4 h / concentration at 12 h / concentration at 0 h / AUC(0-inf) / half-life: human, plasma; for AUC(0-inf): read-out: AUC0-∞, mean (CV%)
Protocol: The PK characteristics of CYH33 and its active metabolite I27 were evaluated after single and multiple dose administrations. PK data were obtained from 37 patients from 7 dose cohorts: 1 mg (n = 1), 5 mg (n = 1), 10 mg (n = 2), 20 mg (n = 6), 30 mg (n = 12), 40 mg (n = 13), and 60 mg (n = 2). Intensive and sparse PK sampling was performed. Prior to initiating a continuous daily treatment cycle, the first 5 patients participated in a single dose PK treatment period with a 7-day washout in order to determine the terminal-phase half-life (t1/2) of CYH33 and its active metabolite I27. Based on the single dose PK data for CYH33 of the first 5 patients at doses of 1, 5, 10 and 20 mg, the PK and metabolic characteristics of CYH33 and I27 were evaluated. Combined with the pre-specified rules in the protocol and deliberation from the SMC, subsequent patients directly entered the continuous dose phase.
Blood samples for PK evaluation were collected at: (1) during the single dose phase: on day 1 pre-dose and 0.5, 1, 2, 4, 8, 12, 24, 36, 48, and 72 h post-dose; (2) during the continuous dose phase: C1D1/Cycle 1 Day 28 pre-dose, and 0.5, 1, 2, 3, 4, 6, 8, 12, and 24 h post-dose; and C1D8/Day 15 pre-dose. Plasma concentrations of CYH33 and I27 were analyzed using a liquid chromatography-tandem mass spectrometry (LC/MS/MS) assay (Shimadzu Corporation, LC-30AD) with a lower limit of quantification (LLOQ) of 2.585 ng/mL and 1.0 ng/mL for CYH33 and I27, respectively. […] Blood samples for measuring the FBG level were collected within 30 min before dosing on C1D1, C1D15, and on the first day of subsequent treatment cycles.

[1] = CYH33, Cycle 1 Day 28, 1 mg (n=1)
[2] = CYH33, Cycle 1 Day 28, 5 mg (n=1)
[3] = CYH33, Cycle 1 Day 28, 10 mg (n=2)
[4] = CYH33, Cycle 1 Day 28, 20 mg (n=6)
[5] = CYH33, Cycle 1 Day 28, 30 mg (n=9)
[6] = CYH33, Cycle 1 Day 28, 40mg (n=7)
[7] = CYH33, Cycle 1 Day 28, 60 mg (n=2)

## COC(=O)Nc1cc(C(F)(F)F)c(-c2nc(N3CCOCC3)c3cc(CN4CCN(S(C)(=O)=O)CC4)cn3n2)cn1 [CYH33, methyl (5-(6-((4-(methylsulfonyl)piperazin-1-yl)methyl)−4-morpholinopyrrolo[2,1-f][1,2,4]triazin-2-yl)−4-(trifluoromethyl)pyridin-2-yl)carbamate]
[1]
  Cmin, mean: 0 ng/mL
  Rac_AUC, mean: 2.0
  Rac_Cmax, mean: 1.0
[2]
  CLss/F, mean: 8.6 L/h
  Cmin, mean: 15.1 ng/mL
  Rac_AUC, mean: 2.2
  Rac_Cmax, mean: 2.3
[3]
  CLss/F, mean: 8.2 L/h
  Cmin, mean: 33.4 ng/mL
  Rac_AUC, mean: 2.0
  Rac_Cmax, mean: 1.8
[4]
  CLss/F, mean: 8.1 L/h
  Cmin, mean: 80.8 ng/mL
  Rac_AUC, mean: 4.2
  Rac_Cmax, mean: 3.3
[5]
  CLss/F, mean: 11.0 L/h
  Cmin, mean: 111.4 ng/mL
  Rac_AUC, mean: 2.9
  Rac_Cmax, mean: 1.9
[6]
  CLss/F, mean: 11.8 L/h
  Cmin, mean: 126.5 ng/mL
  Rac_AUC, mean: 4.3
  Rac_Cmax, mean: 3.2
[7]
  CLss/F, mean: 15.9 L/h
  Cmin, mean: 133.2 ng/mL
  Rac_AUC, mean: 3.2
  Rac_Cmax, mean: 2.2
Daily dosing
  average accumulation of exposure (AUC0-24h) at steady state vs Cycle 1 Day 1: around 2.9 fold
  time to steady state: ≤ 8 days
oral, 1 mg, CYH33, Cycle 1 Day 1, 1 mg (n = 1), read-out: AUC0-24h, mean (CV%)
  AUC(0-t): 26 ng·h/mL
oral, 1 mg, CYH33, Cycle 1 Day 1, 1 mg (n = 1), read-out: Cmax, mean (CV%)
  Cmax: 4.6 ng/mL
oral, 1 mg, CYH33, Cycle 1 Day 1, 1 mg (n = 1), read-out: Tmax, median (min-max)
  Tmax: 1 h
oral, 1 mg, CYH33, Cycle 1 Day 28, 1 mg (n=1), read-out: AUC0-24h, mean
  AUC(0-t): 51.6 ng·h/mL
oral, 1 mg, CYH33, Cycle 1 Day 28, 1 mg (n=1), read-out: Cmax, mean
  Cmax: 4.8 ng/mL
oral, 1 mg, CYH33, Cycle 1 Day 28, 1 mg (n=1), read-out: Tmax, median
  Tmax: 4 h
oral, 5 mg, CYH33, Cycle 1 Day 1, 5 mg (n = 1), read-out: AUC0-24h, mean (CV%)
  AUC(0-t): 266 ng·h/mL
oral, 5 mg, CYH33, Cycle 1 Day 1, 5 mg (n = 1), read-out: Cmax, mean (CV%)
  Cmax: 24.6 ng/mL
oral, 5 mg, CYH33, Cycle 1 Day 1, 5 mg (n = 1), read-out: Tmax, median (min-max)
  Tmax: 2 h
oral, 5 mg, CYH33, Cycle 1 Day 28, 5 mg (n=1), read-out: AUC0-24h, mean
  AUC(0-t): 582 ng·h/mL
oral, 5 mg, CYH33, Cycle 1 Day 28, 5 mg (n=1), read-out: Cmax, mean
  Cmax: 56.2 ng/mL
oral, 5 mg, CYH33, Cycle 1 Day 28, 5 mg (n=1), read-out: Tmax, median
  Tmax: 1 h
oral, 10 mg, CYH33, Cycle 1 Day 1, 10 mg (n = 2), read-out: AUC0-24h, mean (CV%)
  AUC(0-t): 624 ng·h/mL
oral, 10 mg, CYH33, Cycle 1 Day 1, 10 mg (n = 2), read-out: Cmax, mean (CV%)
  Cmax: 43.1 ng/mL
oral, 10 mg, CYH33, Cycle 1 Day 1, 10 mg (n = 2), read-out: Tmax, median (min-max)
  Tmax: 4 h
oral, 10 mg, CYH33, Cycle 1 Day 28, 10 mg (n=2), read-out: AUC0-24h, mean
  AUC(0-t): 1230 ng·h/mL
oral, 10 mg, CYH33, Cycle 1 Day 28, 10 mg (n=2), read-out: Cmax, mean
  Cmax: 78.9 ng/mL
oral, 10 mg, CYH33, Cycle 1 Day 28, 10 mg (n=2), read-out: Tmax, median
  Tmax: 3 h
oral, 20 mg, CYH33, Cycle 1 Day 1, 20 mg (n = 5), read-out: AUC0-24h, mean (CV%)
  AUC(0-t): 763 ng·h/mL
oral, 20 mg, CYH33, Cycle 1 Day 1, 20 mg (n = 5), read-out: Cmax, mean (CV%)
  Cmax: 56.3 ng/mL
oral, 20 mg, CYH33, Cycle 1 Day 1, 20 mg (n = 5), read-out: Tmax, median (min-max)
  Tmax: 2 h
oral, 20 mg, CYH33, Cycle 1 Day 28, 20 mg (n=6), read-out: AUC0-24h, mean
  AUC(0-t): 2630 ng·h/mL
oral, 20 mg, CYH33, Cycle 1 Day 28, 20 mg (n=6), read-out: Cmax, mean
  Cmax: 154 ng/mL
oral, 20 mg, CYH33, Cycle 1 Day 28, 20 mg (n=6), read-out: Tmax, median
  Tmax: 3 h
oral, 30 mg, CYH33, Cycle 1 Day 1, 30 mg (n = 12), read-out: AUC0-24h, mean (CV%)
  AUC(0-t): 1300 ng·h/mL
oral, 30 mg, CYH33, Cycle 1 Day 1, 30 mg (n = 12), read-out: Cmax, mean (CV%)
  Cmax: 96.5 ng/mL
oral, 30 mg, CYH33, Cycle 1 Day 1, 30 mg (n = 12), read-out: Tmax, median (min-max)
  Tmax: 3.5 h
oral, 30 mg, CYH33, Cycle 1 Day 28, 30 mg (n=9), read-out: AUC0-24h, mean
  AUC(0-t): 3530 ng·h/mL
oral, 30 mg, CYH33, Cycle 1 Day 28, 30 mg (n=9), read-out: Cmax, mean
  Cmax: 187 ng/mL
oral, 30 mg, CYH33, Cycle 1 Day 28, 30 mg (n=9), read-out: Tmax, median
  Tmax: 3 h
oral, 40 mg, CYH33, Cycle 1 Day 1, 40 mg (n = 3), read-out: AUC0-24h, mean (CV%)
  AUC(0-t): 1320 ng·h/mL
oral, 40 mg, CYH33, Cycle 1 Day 1, 40 mg (n = 3), read-out: Cmax, mean (CV%)
  Cmax: 97.9 ng/mL
oral, 40 mg, CYH33, Cycle 1 Day 1, 40 mg (n = 3), read-out: Tmax, median (min-max)
  Tmax: 2 h
oral, 40 mg, CYH33, Cycle 1 Day 28, 40mg (n=7), read-out: AUC0-24h, mean
  AUC(0-t): 3940 ng·h/mL
oral, 40 mg, CYH33, Cycle 1 Day 28, 40mg (n=7), read-out: Cmax, mean
  Cmax: 224 ng/mL
oral, 40 mg, CYH33, Cycle 1 Day 28, 40mg (n=7), read-out: Tmax, median
  Tmax: 4 h
oral, 60 mg, CYH33, Cycle 1 Day 1, 60 mg (n = 4), read-out: AUC0-24h, mean (CV%)
  AUC(0-t): 1870 ng·h/mL
oral, 60 mg, CYH33, Cycle 1 Day 1, 60 mg (n = 4), read-out: Cmax, mean (CV%)
  Cmax: 123 ng/mL
oral, 60 mg, CYH33, Cycle 1 Day 1, 60 mg (n = 4), read-out: Tmax, median (min-max)
  Tmax: 4 h
oral, 60 mg, CYH33, Cycle 1 Day 28, 60 mg (n=2), read-out: AUC0-24h, mean
  AUC(0-t): 4010 ng·h/mL
oral, 60 mg, CYH33, Cycle 1 Day 28, 60 mg (n=2), read-out: Cmax, mean
  Cmax: 220 ng/mL
oral, 60 mg, CYH33, Cycle 1 Day 28, 60 mg (n=2), read-out: Tmax, median
  Tmax: 2.5 h
oral, C1D1, 1 mg
  concentration at 0.5 h: 1.9 ng/mL
  concentration at 24 h: 0 ng/mL
oral, C1D1, 5 mg
  concentration at 0.5 h: 0 ng/mL
  concentration at 24 h: 5.9 ng/mL
  concentration at 72 h: 0 ng/mL
oral, C1D1, 10 mg
  concentration at 0.5 h: 14 ng/mL
  concentration at 4 h: 43.1 ng/mL
  concentration at 24 h: 17.4 ng/mL
  concentration at 72 h: 3.2 ng/mL
oral, C1D1, 20 mg
  concentration at 4 h: 43.9 ng/mL
  concentration at 12 h: 29.5 ng/mL
  concentration at 24 h: 22.3 ng/mL
  concentration at 72 h: 7.1 ng/mL
oral, C1D1, 30 mg
  concentration at 4 h: 81.2 ng/mL
  concentration at 12 h: 49.9 ng/mL
oral, C1D1, 40 mg
  concentration at 0.5 h: 33.8 ng/mL
  concentration at 24 h: 45.2 ng/mL
oral, C1D1, 60 mg
  concentration at 0.5 h: 21.9 ng/mL
  concentration at 24 h: 61.4 ng/mL
oral, C1D28, 1 mg
  concentration at 0 h: 0 ng/mL
oral, C1D28, 5 mg
  concentration at 0 h: 15.5 ng/mL
oral, C1D28, 10 mg
  concentration at 0 h: 34.8 ng/mL
oral, C1D28, 20 mg
  concentration at 0 h: 85.1 ng/mL
oral, C1D28, 30 mg
  concentration at 0 h: 113 ng/mL
  concentration at 24 h: 124 ng/mL
oral, C1D28, 40 mg
  concentration at 0 h: 141 ng/mL
oral, C1D28, 60 mg
  concentration at 0 h: 147 ng/mL
oral, CYH33, Cycle 1 Day 1, 1 mg (n = 1)
  AUC(0-inf): 36.8 ng·h/mL
oral, CYH33, Cycle 1 Day 1, 5 mg (n = 1)
  AUC(0-inf): 429 ng·h/mL
oral, CYH33, Cycle 1 Day 1, 5 mg (n = 1), read-out: t1/2, mean (CV%) (converted)
  half-life: 19.2 h
oral, CYH33, Cycle 1 Day 1, 10 mg (n = 2)
  AUC(0-inf): 1090 ng·h/mL
oral, CYH33, Cycle 1 Day 1, 10 mg (n = 2), read-out: t1/2, mean (CV%) (converted)
  half-life: 20.2 h
oral, CYH33, Cycle 1 Day 1, 20 mg (n = 5)
  AUC(0-inf): 2190 ng·h/mL
oral, CYH33, Cycle 1 Day 1, 20 mg (n = 5), read-out: t1/2, mean (CV%) (converted)
  half-life: 20.8 h
po, dose range 1–60 mg, read-out: median time to maximum plasma concentration (Tmax)
  Tmax: 1 to 4 h
Oral CYH33, read-out: t1/2 (converted)
  half-life: ~20 h
